Measured values reported in patent US20110177155A1, “METHODS OF DELIVERY OF AGENTS TO LEUKOCYTES AND ENDOTHELIAL CELLS” (IMMUNE DISEASE INSTITUTE, INC., priority 2007, published 2011).

Legend:
INF-β, OAS1 and STAT1 = assay: Interferon assay (quantitative RT-PCR of IFN-responsive genes in splenocytes); assay type: cell-based, mouse
Experimental: Spleenocytes (1×10^6 cells/ml) were mock treated or treated with β7 It-sNP and luciferase-siRNA (1000 pmol) or 5 μg/ml poly (I:C). After 48 h RNA was isolated and analyzed by quantitative RT-PCR for induction of IFN or interferon responsive genes as described below.
Total RNA (1 μg) isolated using RNeasy RNA isolation kit (Qiagen) or for tissues, RNAlater RNA stabilization reagent was used followed by RNeasy fibrous tissue mini kit (Qiagen) and reverse transcribed using Superscript III (Invitrogen) and random hexamers, according to the manufacturer's protocol. […] SYBR green (Molecular Probes) was used to detect PCR products. All reactions were done in a 25 μl reaction volume in triplicate. Primers for mouse GAPDH, STAT1, OAS1 and INF β were previously described (Song et al., 2005). The following primer pairs have been used: IL-12p40: Forward: 5′-[…]-3′ (SEQ ID NO:9); Reverse: 5′-[…]-3′ (SEQ ID NO:10); TNF α: Forward 5′-[…]-3′ (SEQ ID NO:11), Reverse 5′-[…]-3′ (SEQ ID NO:12); Cyclin D1: Forward 5′-CTTCCTCTCCAAAATGCCAG-3′ (SEQ ID NO:13), Reverse 5′-AGAGATGGAAGGGGGAAAGA-3′ (SEQ ID NO:14). PCR parameters consisted of 5 min of Taq activation at 95° C., followed by 40 cycles of PCR at 95° C.×20 sec, 60° C.×30 sec, and 69° C.×20 sec. Standard curves were generated and the relative amount of target gene mRNA was normalized to GAPDH mRNA. […]

[1] = test system: siRNA-mediated mRNA degradation; settings: cited from earlier work

In the case of poly (I:C), the “induction of interferon-responsive genes (IRG: INF-β, OAS1, STAT1 mRNA)” value (INF-β, OAS1 and STAT1) was “induced”.
For `CCn1cc(C(=O)O)c(=O)c2cc(F)c(N3CCNCC3)nc21` [Enoxacin], the “enhancement of siRNA-mediated mRNA degradation” value ([1]; with siRNA) is listed as “enhances siRNA-mediated degradation” and the “effect in mRNA degradation by itself” value ([1]; without siRNA) is listed as “essentially no effect”.
